Assay results published in paper PMC10451623 (Antioxidants, 2023).

Experiments:
[1] = biological target: T1, PPARγ-LBD (Homo sapiens, UniProt P37231); experiment: TR-FRET PGC1α coactivator recruitment assay; assay type: biochemical; design: PPARγ-LBD (amino acids 203–477 in isoform 1); made in house; host or cells: Rosetta (DE3) pLysS (E. coli); details: PGC1α peptide, read-out: EC50, PGC1α recruitment to PPARγ-LBD
T1 sequence (P37231 203-477 isoform P37231-2): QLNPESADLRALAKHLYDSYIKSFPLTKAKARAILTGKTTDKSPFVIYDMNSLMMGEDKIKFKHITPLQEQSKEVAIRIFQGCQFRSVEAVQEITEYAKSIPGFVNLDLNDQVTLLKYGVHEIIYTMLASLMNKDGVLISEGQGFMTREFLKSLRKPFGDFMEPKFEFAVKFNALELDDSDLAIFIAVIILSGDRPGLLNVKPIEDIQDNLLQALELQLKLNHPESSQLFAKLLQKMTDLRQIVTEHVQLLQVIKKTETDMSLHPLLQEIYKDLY
Method: (§1) Subsequently, 5 µL of 4 nM Eu-W1024-labeled anti-6×His antibody/80 nM ULight-Streptavidin (PerkinElmer) was added to each well, and the microplate was incubated in the dark for 2 h, at room temperature. […] The nonlinear fitting and the calculation of the EC50 were performed using the Prism 9 software (GraphPad, San Diego, CA, USA).
(§2) The ligand-bound activated forms of PPARs are stabilized by associations with specific coactivators, thereby enabling the regulation of specific gene expression.
(§3) Figure 2 TR-FRET-based LBD-mediated human PPARα/δ/γ coactivator recruitment assay. […] Data are presented as the mean ± SE of three or four independent experiments with duplicate samples, and the calculated EC50 values are shown.

[2] = biological target: T2, PPARα-LBD (Homo sapiens, UniProt Q07869); experiment: TR-FRET PGC1α coactivator recruitment assay; assay type: biochemical; design: Human PPARα-LBD (amino acids 200–468); made in house; host or cells: Rosetta (DE3) pLysS (E. coli); details: PGC1α peptide, read-out: EC50, PGC1α recruitment to PPARα-LBD
T2 sequence (Q07869 200-468): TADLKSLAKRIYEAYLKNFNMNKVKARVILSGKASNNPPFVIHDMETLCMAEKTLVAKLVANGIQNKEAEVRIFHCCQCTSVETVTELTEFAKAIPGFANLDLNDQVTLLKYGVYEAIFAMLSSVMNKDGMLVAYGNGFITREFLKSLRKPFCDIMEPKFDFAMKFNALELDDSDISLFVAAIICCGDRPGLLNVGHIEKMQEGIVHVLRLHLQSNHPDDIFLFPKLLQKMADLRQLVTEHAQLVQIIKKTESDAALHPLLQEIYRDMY
Method: as §1, §2, §3

[3] = biological target: T2, PPARα-LBD; experiment: TR-FRET SRC1 coactivator recruitment assay; assay type: biochemical; design: Human PPARα-LBD (amino acids 200–468); made in house; host or cells: Rosetta (DE3) pLysS (E. coli); details: for EC50: TR-FRET, SRC1 peptide, read-out: EC50, SRC1 recruitment to PPARα-LBD
Method: as §1, §2, §3

[4] = biological target: T3, human PPARγ (Homo sapiens, UniProt P37231); experiment: Transactivation assay (GAL4–hPPARγ-LBD chimera, luciferase reporter, COS-7 cells); assay type: cell-based; details: for Emax: 100% = 1 µM GW1929, read-out: Efficacy, PPARγ transactivation (% of the maximal response); for EC50: GAL4–hPPARγ-LBD
T3 construct: expressed in transfected cells; host or cells: COS-7
T3 sequence (P37231 238-503 limits assumed): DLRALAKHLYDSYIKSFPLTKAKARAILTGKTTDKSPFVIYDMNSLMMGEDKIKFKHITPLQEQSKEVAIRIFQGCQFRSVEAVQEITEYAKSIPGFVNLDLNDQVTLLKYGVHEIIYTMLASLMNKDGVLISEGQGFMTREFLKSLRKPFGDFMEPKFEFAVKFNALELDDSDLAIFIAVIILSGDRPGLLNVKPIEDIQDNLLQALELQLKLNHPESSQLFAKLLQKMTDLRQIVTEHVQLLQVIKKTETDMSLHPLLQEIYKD
Method: The pSG5-GAL–hPPARα/δ/γ plasmids express fusion proteins comprising the yeast transcription factor GAL4 DNA-binding domain and each of the human PPARα/δ/γ-LBDs. The MH100(UAS)×4-tk-Luc plasmid contains four copies of the MH100 GAL4 binding site and the Firefly luciferase gene. The cells were transfected with those plasmids and were treated with various PPAR ligands, and both Firefly and Renilla luciferase activities were measured using the Dual-Glo Luciferase Assay System (Promega, Madison, WI, USA) as described previously. […] GW1929 was purchased from Sigma-Aldrich (St. Louis, MO, USA).
For the undertaking of the comparison of the potency, efficacy, and selectivity of the five PPAR ligands (Figure 1A) against the PPAR subtypes, we evaluated their PPARα/δ/γ activation using three different methods: a cell-based transactivation assay, a coactivator recruitment assay, and a thermal stability assay, as we previously performed on three fibrates (namely, bezafibrate, fenofibric acid, and pemafibrate). The cell-based transactivation assay utilizing the Gal4–PPAR-LBD system is the most widely used method for the determination of PPAR activation by certain ligands, although their responses depend on the used cell types in which several coactivators with altered functions are differentially expressed.
Figure 1 LBD-mediated human PPARα/δ/γ transactivation by PPAR ligands. (A) Chemical structures of the five PPAR ligands used in this study. […] Data are presented as the mean ± standard error (SE) of three independent experiments with duplicate samples.

[5] = biological target: T4, PPARδ-LBD (Homo sapiens, UniProt Q03181); experiment: TR-FRET PGC1α coactivator recruitment assay; assay type: biochemical; design: PPARδ-LBD (amino acids 170–441); made in house; host or cells: Rosetta (DE3) pLysS (E. coli); details: for EC50: TR-FRET, PGC1α peptide, read-out: EC50, PGC1α recruitment to PPARδ-LBD
T4 sequence (Q03181 170-441): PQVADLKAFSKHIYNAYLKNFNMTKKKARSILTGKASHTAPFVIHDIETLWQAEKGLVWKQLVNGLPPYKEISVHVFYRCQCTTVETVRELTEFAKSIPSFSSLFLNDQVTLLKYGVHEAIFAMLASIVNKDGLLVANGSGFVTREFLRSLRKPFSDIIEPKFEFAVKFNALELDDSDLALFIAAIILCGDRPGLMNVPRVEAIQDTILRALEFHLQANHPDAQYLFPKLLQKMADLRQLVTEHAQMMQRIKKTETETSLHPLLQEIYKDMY
Method: as §1, §2, §3

EC50 [1] [µM] | EC50 [2] [µM] | Efficacy, SRC1 recruitment to PPARα-LBD ([3]; 100% = 1 µM GW7647) [%] | EC50 [3] [µM] | Emax [4] [%] | EC50 [4] [nM] | EC50 [5] [µM] | Efficacy, PGC1α recruitment to PPARδ-LBD ([5]; 100% = 1 µM GW501516) [%] | Compound
15.5 | 6.93 | 59.2 | 4.95 | 38.5 | 2120 | – | – | CSc1ccc(C(=O)/C=C/c2cc(C)c(OC(C)(C)C(=O)O)c(C)c2)cc1 [elafibranor]
4.65 | 10 | – | 13.8 | 24.9 | 572 | 3.86 | – | O=C(O)CCCc1cc2cc(Cl)ccc2n1S(=O)(=O)c1ccc2ncsc2c1 [lanifibranor]
1.03 | 4.11 | – | 1.04 | 89.4 | 311 | > 100 | – | CCO[C@@H](Cc1ccc(OCCn2c(C)ccc2-c2ccc(SC)cc2)cc1)C(=O)O [saroglitazar]
19.4 | 3.84 | – | > 1 | 58.5 | 3530 | 0.0307 | 124 | CCO[C@H](COc1ccc(C(F)(F)F)cc1)CSc1ccc(OCC(=O)O)c(C)c1 [seladelpar]
